Source: PMC9301657 (Journal of biochemical and molecular toxicology, 2010)
Structures can show the parent of a compound that is named as a salt.

How the values were obtained:
[1] = target: T1, r-SgAChE1 (Schizaphis graminum acetylcholinesterase-1) (Schizaphis graminum, UniProt Q9BMJ1); assay: Kinetics of substrate hydrolysis; format: biochemical; conditions: for KM of r-SgAChE1 relative to SgAChE purified from the greenbug / Vmax of r-SgAChE1 relative to SgAChE purified from the greenbug: comparison with ref 13; for Km: read-out: KM (Michaelis constant); for Km / Vmax (maximum velocity) / Vmax: room temperature; for Km / Vmax: pH 7.0; for kcat × 10^−3 (turnover rate): values × 10^−3, calculated from molecular mass 64,597 Da and Vmax
T1 sequence (Q9BMJ1 98-659): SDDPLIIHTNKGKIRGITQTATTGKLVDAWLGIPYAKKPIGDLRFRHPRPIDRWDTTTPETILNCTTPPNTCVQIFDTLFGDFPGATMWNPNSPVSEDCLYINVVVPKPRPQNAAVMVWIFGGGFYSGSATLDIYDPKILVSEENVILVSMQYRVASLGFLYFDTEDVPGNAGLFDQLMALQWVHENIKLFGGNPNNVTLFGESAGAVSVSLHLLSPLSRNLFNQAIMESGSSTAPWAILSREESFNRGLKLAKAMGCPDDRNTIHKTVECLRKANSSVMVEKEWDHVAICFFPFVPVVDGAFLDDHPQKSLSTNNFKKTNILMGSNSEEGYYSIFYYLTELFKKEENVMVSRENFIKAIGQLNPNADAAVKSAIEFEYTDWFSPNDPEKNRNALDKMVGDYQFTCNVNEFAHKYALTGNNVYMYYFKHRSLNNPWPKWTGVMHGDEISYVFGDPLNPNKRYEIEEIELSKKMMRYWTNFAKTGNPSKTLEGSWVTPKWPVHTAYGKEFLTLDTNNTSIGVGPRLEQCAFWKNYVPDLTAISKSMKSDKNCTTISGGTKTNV

[2] = target: T1, r-SgAChE1 (Schizaphis graminum acetylcholinesterase-1); format: biochemical
[3] = target: T1, r-SgAChE1 (Schizaphis graminum acetylcholinesterase-1); assay: Determination of IC50 for inhibition of purified r-SgAChE1; format: biochemical; conditions: room temperature
[4] = system: SgAChE purified from the greenbug; conditions: read-out: IC50 against SgAChE; native SgAChE; cited from earlier work
[5] = target: T1, r-SgAChE1 (Schizaphis graminum acetylcholinesterase-1); assay: Inhibitory kinetic constants; format: biochemical; conditions: for k2 (unimolecular rate constant) / ki / ki (bimolecular reaction constant) / ki (bimolecular reaction constant, k2/Kd): ATC substrate, room temperature
[6] = system: SgAChE purified from the greenbug; conditions: read-out: KM toward SgAChE; native SgAChE; cited from earlier work

Row | SMILES | KM of r-SgAChE1 relative to SgAChE purified from the greenbug [1] [fold] | Vmax of r-SgAChE1 relative to SgAChE purified from the greenbug [1] [fold] | Km [1] [µM] | Vmax (maximum velocity) [1] [U/mg] | Vmax [1] [U/mg Protein] | k2 (unimolecular rate constant) [5] [min⁻¹] | ki [5] [M⁻¹ s⁻¹] | further results
1 | CC(=O)SCC[N+](C)(C)C.[I-] [ATC, Acetylthiocholine iodide] | 1.53 | 1.7 | 88.3 ± 9.6 | 133.2 ± 1.6 | 133.2 ± 1.6 |  |  | kcat × 10^−3 (turnover rate) [1]: 8.60 ± 0.11 min^−1; ATC concentration above which enzymatic activity is inhibited ([2]; substrate inhibition): above 10 mM
2 | CC(=O)SC(C)C[N+](C)(C)C.[I-] (stereo not drawn) [AβMTC, acetyl(β-methyl)thiocholine iodide] | 1.88 | 1.6 | 114 ± 12.5 | 106.4 ± 3.0 | 106.4 ± 3.0 |  |  | kcat × 10^−3 (turnover rate) [1]: 6.88 ± 0.20 min^−1
3 | CCCC(=O)SCC[N+](C)(C)C.[I-] [BTC, S-butyrylthiocholine iodide] | 6.02 | 1.9 | 201 ± 21 | 4.4 ± 0.1 | 4.4 ± 0.1 |  |  | 
4 | C=CC[N+](C)(C)c1ccc(CCC(=O)CCc2ccc([N+](C)(C)CC=C)cc2)cc1 [BW284C51, 1,5-bis(4-allyldimethylammoniumphenyl)-pentan-3-one dibromide] |  |  |  |  |  |  |  | IC50 ([3]; 5 min incubation): 1.66 ± 0.002 µM; IC50 [4]: 0.14 µM
5 | CNC(=O)Oc1cccc2ccccc12 [Carbaryl, carbaryl] |  |  |  |  |  | 0.99 ± 0.01 | 1080 ± 67 | IC50 ([3]; IC50, 5 min incubation): 0.94 ± 0.005 µM; Kd [5]: 15.6 ± 2.9 µM
6 | CNC(=O)Oc1ccc2c(c1)[C@]1(C)CCN(C)[C@@H]1N2C.CNC(=O)Oc1ccc2c(c1)[C@]1(C)CCN(C)[C@@H]1N2C.O=S(=O)(O)O [Eserine, eserine hemisulfate] |  |  |  |  |  | 1.58 ± 0.04 | 1670 ± 267 | IC50 ([3]; 5 min incubation): 0.199 ± 0.004 µM; IC50 ([3]; 5 min incubation, listed as eserine): 0.2 µM; ki (bimolecular reaction constant) [5]: 1.00 ± 0.16 × 10^5 M^−1 min^−1; ki (bimolecular reaction constant, k2/Kd) [5]: 1.00 ± 0.16 ×10^−5 M^−1 min^−1; ki (bimolecular reaction constant) ([5]; listed as eserine): (1.00 ± 0.16) × 10^5 M^−1 min^−1; IC50 [4]: 0.48 µM
7 | CCN(CC)C(C)CN1c2ccccc2Sc2ccccc21 (stereo not drawn) [Ethopropazine, ethopropazine hydrochloride] |  |  |  |  |  |  |  | IC50 ([3]; IC50, 5 min incubation): 102 µM
8 | CCOC(=O)CC(SP(=O)(OC)OC)C(=O)OCC (stereo not drawn) [Malaoxon, malaoxon] |  |  |  |  |  | 1.59 ± 0.02 | 7830 ± 217 | IC50 ([3]; IC50, 5 min incubation): 0.061 µM; Kd [5]: 3.4 ± 0.1 µM; k2 (unimolecular rate constant) ([5]; listed as malaoxon): 1.59 min⁻¹
9 | CCC(=O)SCC[N+](C)(C)C.[I-] [PTC, propionylthio-choline iodide] | 2.20 | 2.0 | 68.9 ± 7.8 | 76.7 ± 1.0 | 76.7 ± 1.0 |  |  | kcat × 10^−3 (turnover rate) [1]: 4.95 ± 0.07 min^−1; Km [6]: 31.3 ± 3.7 µM
10 | CCOP(=O)(OCC)Oc1ccc([N+](=O)[O-])cc1 [Paraoxon] |  |  |  |  |  | 2.76 ± 0.25 | 15100 ± 383 | ki (bimolecular reaction constant, k2/Kd) [5]: 9.06 ± 0.23 ×10^−5 M^−1 min^−1; k2 (unimolecular rate constant) ([5]; listed as paraoxon): 2.76 min⁻¹
11 | CC(=O)O [acetate] |  |  |  |  |  |  |  | influence on hydrolytic activity ([2]; range from 1 μM to 100 mM): not much influenced
12 | C[N+](C)(C)CCO [choline, choline chloride] |  |  |  |  |  |  |  | choline concentration above which the enzyme is inhibited [2]: higher than 20 mM
